Results: patent publication US12617779B2, “Self degradation-type CDK9 inhibitor prodrug and liposome encapsulating same” (Sumitomo Pharma Co., Ltd., priority 2021, dated 2026)

Assay: Evaluation of conversion rate to active form in buffer solution (Experimental Example 1)
Assay type: physicochemical
Settings: for Production rate of Alvocidib / Residual rate: 37° C., 25 umol/L in buffer solution
In short: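 25 umol/L cpd, 37° C; 50 mM citrate pH 5.0/5.5, 50 mM phosphate pH 6.0/6.5/7.0/7.4. HPLC at 0–3 h: residual rate and Alvocidib production rate.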

For `CCN(CCC1CCCCN1)C(=O)Oc1cc(O)c2c(=O)cc(-c3ccccc3Cl)oc2c1[C@H]1CCN(C)C[C@H]1O` (stereo partly drawn) [Example 16, 2-(2-chlorophenyl)-5-hydroxy-8-[(3S,4R)-3-hydroxy-1-methylpiperidin-4-yl]-4-oxo-4H-1-benzopyran-7-yl ethyl[2-(piperidin-2-yl)ethyl]carbamate], the “Production rate of Alvocidib” value (pH5.0, 0 hr) was 0.0%, the Residual rate (pH5.0, 0 hr) was 84.3% and the “Stability in buffer solution at pH 5” value (pH 5, 37° C., up to 2 or 3 hours) was “stable”. For the same compound, the “Production rate of Alvocidib” value (pH5.0, 0.5 hr) was 0.0%, the Residual rate (pH5.0, 0.5 hr) was 84.9% and the “Production rate of Alvocidib” value (pH5.0, 1 hr) was 0.0%. The Residual rate (pH5.0, 1 hr) was 86.4%, the “Production rate of Alvocidib” value (pH5.0, 2 hr) was 0.0% and the Residual rate (pH5.0, 2 hr) was 86.1%. For the same compound, the “Production rate of Alvocidib” value (pH5.0, 3 hr) was 0.0%, the Residual rate (pH5.0, 3 hr) was 86.1% and the “Production rate of Alvocidib” value (pH5.5, 0 hr) was 0.0%. For the same compound, the Residual rate (pH5.5, 0 hr) was 84.9%, the “Production rate of Alvocidib” value (pH5.5, 0.5 hr) was 0.0% and the Residual rate (pH5.5, 0.5 hr) was 85.8%. The “Production rate of Alvocidib” value (pH5.5, 1 hr) was 0.0%, the Residual rate (pH5.5, 1 hr) was 86.3% and the “Production rate of Alvocidib” value (pH5.5, 2 hr) was 0.0%. The Residual rate (pH5.5, 2 hr) was 85.7%, the “Production rate of Alvocidib” value (pH5.5, 3 hr) was 0.0% and the Residual rate (pH5.5, 3 hr) was 86.6%. For the same compound, the “Production rate of Alvocidib” value (pH6.0, 0 hr) was 0.0%, the Residual rate (pH6.0, 0 hr) was 85.3% and the “Production rate of Alvocidib” value (pH6.0, 0.5 hr) was 0.0%. The Residual rate (pH6.0, 0.5 hr) was 84.3%, the “Production rate of Alvocidib” value (pH6.0, 1 hr) was 12.8% and the Residual rate (pH6.0, 1 hr) was 71.7%. For the same compound, the “Production rate of Alvocidib” value (pH6.0, 2 hr) was 21.6%, the Residual rate (pH6.0, 2 hr) was 63.0% and the “Production rate of Alvocidib” value (pH6.0, 3 hr) was 29.3%. The Residual rate (pH6.0, 3 hr) was 55.6%, the “Production rate of Alvocidib” value (pH6.5, 0 hr) was 0.0% and the Residual rate (pH6.5, 0 hr) was 86.0%. For the same compound, the “Production rate of Alvocidib” value (pH6.5, 0.5 hr) was 16.4%, the Residual rate (pH6.5, 0.5 hr) was 67.6% and the “Production rate of Alvocidib” value (pH6.5, 1 hr) was 25.3%. The Residual rate (pH6.5, 1 hr) was 61.4%, the “Production rate of Alvocidib” value (pH6.5, 2 hr) was 47.1% and the Residual rate (pH6.5, 2 hr) was 37.4%. The “Production rate of Alvocidib” value (pH6.5, 3 hr) was 51.5%, the Residual rate (pH6.5, 3 hr) was 34.9% and the “Production rate of Alvocidib” value (pH7.0, 0 hr) was 0.0%. The Residual rate (pH7.0, 0 hr) was 86.2%, the “Production rate of Alvocidib” value (pH7.0, 0.5 hr) was 30.5% and the Residual rate (pH7.0, 0.5 hr) was 54.8%. For the same compound, the “Production rate of Alvocidib” value (pH7.0, 1 hr) was 50.2%, the Residual rate (pH7.0, 1 hr) was 35.7% and the “Production rate of Alvocidib” value (pH7.0, 2 hr) was 68.6%. The Residual rate (pH7.0, 2 hr) was 16.9%, the “Production rate of Alvocidib” value (pH7.0, 3 hr) was 78.2% and the Residual rate (pH7.0, 3 hr) was 7.7%. For the same compound, the “Production rate of Alvocidib” value (pH7.4, 0 hr) was 0.9%, the Residual rate (pH7.4, 0 hr) was 85.3% and the “Conversion to Alvocidib at pH 7.4” value (pH 7.4, 37° C., up to 3 hours) was “rapidly converted to Alvocidib”. The “Production rate of Alvocidib” value (pH7.4, 0.5 hr) was 59.0%, the Residual rate (pH7.4, 0.5 hr) was 23.2% and the “Production rate of Alvocidib” value (pH7.4, 1 hr) was 77.8%. For the same compound, the Residual rate (pH7.4, 1 hr) was 5.9%, the “Production rate of Alvocidib” value (pH7.4, 2 hr) was 82.1% and the Residual rate (pH7.4, 2 hr) was 2.2%. The “Production rate of Alvocidib” value (pH7.4, 3 hr) was 85.8% and the Residual rate (pH7.4, 3 hr) was 0.0%.
